Measured values taken from patent US20260015350A1, “AZAQUINAZOLINE PAN-KRAS INHIBITORS” (Mirati Therapeutics, Inc., priority 2022, published 2026).

What was measured:
KRas^G12D = biological target: T1, KRas^G12D (Homo sapiens, UniProt P01116, G12D); experiment: KRas binding assay (TR-FRET tracer displacement), KRas G12D
T1 construct: Biotinylated KRas (corresponding to amino acids 1-169, produced at Accelegan Inc.); biotin (biotinylated); purchased Accelegan Inc

KRas^G12R = biological target: T2, KRas^G12R (Homo sapiens, UniProt P01116, G12R); experiment: KRas binding assay (TR-FRET tracer displacement), KRas G12R
T2 construct: Biotinylated KRas (corresponding to amino acids 1-169, produced at Accelegan Inc.); biotin (biotinylated); purchased Accelegan Inc

KRas^G12V = biological target: T3, KRas^G12V (Homo sapiens, UniProt P01116, G12V); experiment: KRas binding assay (TR-FRET tracer displacement), KRas G12V
T3 construct: Biotinylated KRas (corresponding to amino acids 1-169, produced at Accelegan Inc.); biotin (biotinylated); purchased Accelegan Inc

[1] = test system: KRas-mediated phosphorylation of ERK in MKN1 cells; experiment: Inhibition of KRas-mediated phosphorylation of ERK (Cisbio HTRF pERK), MKN1 cells; format: cell-based; settings: Homo sapiens, MKN-1
Method: (§1) Inhibition of KRas Phosphorylation of ERK (HTRF) by Exemplary Compounds of Formula (I)
(§2) Cisbio HTRF Advanced PERK Assay Catalog #64AERPEH
(§3) Day 1: Seed 6,000 cells/well-25 μl/well in 384-well white solid bottom plate; RPM1_10% FBS. Incubate overnight at 37° C./5% CO2.
(§4) Incubate for 4 hours at room temperature covered.
(§5) Read HTRF using ClarioStar

[2] = test system: KRas-mediated phosphorylation of ERK in PSN1 cells; experiment: Inhibition of KRas-mediated phosphorylation of ERK (Cisbio HTRF pERK), PSN1 cells; format: cell-based; settings: Homo sapiens
Method: as §1, §2, §3, §4, §5

[3] = test system: KRas-mediated phosphorylation of ERK in AsPC-1 cells; experiment: Inhibition of KRas-mediated phosphorylation of ERK (Cisbio HTRF pERK), AsPC-1 cells; format: cell-based; settings: Homo sapiens, ASPC1, AsPC-1 cells; HTRF pERK
In short: (§6)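 Min control wells contained 0.2 uM Trametinib, while test compounds ran as 10 doses (3-fold, top 10 uM; 0.8% DMSO final) on cells for 3 hrs. After 40 mins lysis at 4° C, lysates were probed with HTRF antibodies for 2 hrs at room temperature.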

[4] = test system: KRas-mediated phosphorylation of ERK in H727 cells; experiment: Inhibition of KRas-mediated phosphorylation of ERK (Cisbio HTRF pERK), H727 cells; format: cell-based; settings: Homo sapiens, NCI-H727, H727 cells; HTRF pERK
In short: as §6

[5] = test system: KRas-mediated phosphorylation of ERK in A549 cells; experiment: Inhibition of KRas-mediated phosphorylation of ERK (Cisbio HTRF pERK), A549 cells; format: cell-based; settings: Homo sapiens, HTRF pERK
In short: (§7)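 Phosphorylated ERK was quantified by HTRF using d2-conjugate and Cryptate antibodies added to lysates for 2 hrs at room temperature.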

[6] = test system: KRas-mediated phosphorylation of ERK in H460 cells; experiment: Inhibition of KRas-mediated phosphorylation of ERK (Cisbio HTRF pERK), H460 cells; format: cell-based; settings: Homo sapiens, NCI-H460, HTRF pERK
In short: as §6

[7] = test system: KRas-mediated phosphorylation of ERK in HCT116 cells; experiment: Inhibition of KRas-mediated phosphorylation of ERK (Cisbio HTRF pERK), HCT116 cells; format: cell-based; settings: Homo sapiens, HCT-116, HTRF pERK
In short: as §7

[8] = test system: KRas-mediated phosphorylation of ERK in H358 cells; experiment: Inhibition of KRas-mediated phosphorylation of ERK (Cisbio HTRF pERK), H358 cells; format: cell-based; settings: Homo sapiens, NCI-H358, HTRF pERK
In short: as §6

T3 sequence (P01116 1-169 isoform P01116-2 G12V): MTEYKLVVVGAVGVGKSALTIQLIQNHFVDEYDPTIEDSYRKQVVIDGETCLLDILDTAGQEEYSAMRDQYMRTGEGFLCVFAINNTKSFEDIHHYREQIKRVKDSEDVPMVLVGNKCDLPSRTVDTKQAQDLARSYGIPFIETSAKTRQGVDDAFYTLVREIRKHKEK
T1 sequence (P01116 1-169 isoform P01116-2 G12D): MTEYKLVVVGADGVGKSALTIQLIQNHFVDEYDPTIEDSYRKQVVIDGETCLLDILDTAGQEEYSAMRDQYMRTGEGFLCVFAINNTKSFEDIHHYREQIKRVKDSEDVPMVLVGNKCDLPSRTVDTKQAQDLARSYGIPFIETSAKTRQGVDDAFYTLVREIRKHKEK
T2 sequence (P01116 1-169 isoform P01116-2 G12R): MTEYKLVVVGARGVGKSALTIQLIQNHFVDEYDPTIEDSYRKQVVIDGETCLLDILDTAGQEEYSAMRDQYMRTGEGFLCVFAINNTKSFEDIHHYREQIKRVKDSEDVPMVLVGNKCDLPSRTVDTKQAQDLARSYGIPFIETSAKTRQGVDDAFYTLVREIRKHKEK

Row | Compound | IC50 (KRas^G12D) | IC50 (KRas^G12R) | IC50 (KRas^G12V) | IC50 [1] | IC50 [2] | IC50 [3] | IC50 [4] | IC50 [5] | IC50 [6] | IC50 [7] | IC50 [8]
1 | CCc1c(F)ccc2cc(O)cc(-c3ncc4c(N5C[C@H]6C[C@@H](C5)[C@H](O)[C@H]6O)nc(OC[C@@]56CCCN5C[C@H](F)C6)nc4c3F)c12 (single isomer, unassigned) [Example 569] | 5 nM | < 2 nM | < 2 nM | 69 nM | > 10000 nM | 5110 nM | 444 nM |  |  |  | 
2 | CCc1c(F)ccc2cc(O)cc(-c3ncc4c(N5CC6CCCC(C6)C5)nc(OC[C@@]56CCCN5C[C@H](F)C6)nc4c3F)c12 [Example 551, 4-(4-(3-azabicyclo[3.3.1]nonan-3-yl)-8-fluoro-2-(((2R,7aS)-2-fluorotetrahydro-1H-pyrrolizin-7a(5H)-yl)methoxy)pyrido[4,3-d]pyrimidin-7-yl)-5-ethyl-6-fluoronaphthalen-2-ol] | 127 nM | 27 nM | 32 nM | 1460 nM | > 10000 nM | 2500 nM | 814 nM |  |  |  | 
3 | CCc1c(F)ccc2cc(O)cc(-c3ncc4c(N5C[C@@H]6OCCN[C@@H]6C5)nc(OC[C@@]56CCCN5C[C@H](F)C6)nc4c3F)c12 [Example 555, 5-ethyl-6-fluoro-4-(8-fluoro-2-(((2R,7aS)-2-fluorotetrahydro-1H-pyrrolizin-7a(5H)-yl)methoxy)-4-(hexahydropyrrolo[3,4-b][1,4]oxazin-6 (2H)-yl)pyrido[4,3-d]pyrimidin-7-yl)naphthalen-2-ol] | 2030 nM | 2030 nM | 512 nM | 4020 nM | > 10000 nM | > 10000 nM | > 10000 nM |  |  |  | 
4 | CCc1c(F)ccc2cc(O)cc(-c3ncc4c(N5CCCn6cnnc6C5)nc(OC[C@@]56CCCN5C[C@H](F)C6)nc4c3F)c12 [Example 563, 4-(4-(6,7-dihydro-5H-[1,2,4]triazolo[4,3-a][1,4]diazepin-8 (9H)-yl)-8-fluoro-2-(((2R,7aS)-2-fluorotetrahydro-1H-pyrrolizin-7a(5H)-yl)methoxy)pyrido[4,3-d]pyrimidin-7-yl)-5-ethyl-6-fluoronaphthalen-2-ol] | 85 nM | 238 nM | 100 nM | > 10000 nM | > 10000 nM | > 10000 nM | > 10000 nM |  |  |  | 
5 | CCc1c(F)ccc2cc(O)cc(-c3ncc4c(NCC5CC(CO)NC5=O)nc(OC[C@@]56CCCN5C[C@H](F)C6)nc4c3F)c12 (stereo partly drawn) [Example 575, 3-(((7-(8-ethyl-7-fluoro-3-hydroxynaphthalen-1-yl)-8-fluoro-2-(((2R,7aS)-2-fluorotetrahydro-1H-pyrrolizin-7a(5H)-yl)methoxy)pyrido[4,3-d]pyrimidin-4-yl)amino)methyl)-5-(hydroxymethyl)pyrrolidin-2-one] | 25 nM | 27 nM | 7 nM | 417 nM | > 10000 nM | > 10000 nM | > 10000 nM |  |  |  | 
6 | CCc1c(F)ccc2cc(O)cc(-c3ncc4c(N5CCC(S(C)(=N)=O)C5)nc(OC[C@@]56CCCN5C[C@H](F)C6)nc4c3F)c12 (stereo partly drawn) [Example 580, 5-ethyl-6-fluoro-4-(8-fluoro-2-(((2R,7aS)-2-fluorohexahydro-1H-pyrrolizin-7a-yl)methoxy) 4-(3-(S-methylsulfonimidoyl)pyrrolidin-1-yl)pyrido[4,3-d]pyrimidin-7-yl)naphthalen-2-ol] | 296 nM | 30 nM | 81 nM | 476 nM | > 10000 nM | > 10000 nM | > 10000 nM |  |  |  | 

Second part, the molecule after the results:

Row | IC50 (KRas^G12D) | IC50 (KRas^G12R) | IC50 (KRas^G12V) | IC50 [1] | IC50 [2] | IC50 [3] | IC50 [4] | IC50 [5] | IC50 [6] | IC50 [7] | IC50 [8] | Compound
7 | 19 nM | 41 nM | 17 nM | 834 nM | > 10000 nM | 4030 nM | 3990 nM |  |  |  |  | CCc1c(F)ccc2cc(O)cc(-c3ncc4c(N5CCC[C@@]6(CC[S@+]([O-])C6)C5)nc(OC[C@@]56CCCN5C[C@H](F)C6)nc4c3F)c12 (single isomer, unassigned) [Example 624]
8 | 21 nM | 17 nM | 10 nM | 195 nM | > 10000 nM | 4740 nM | 2850 nM |  |  |  |  | CCc1c(F)ccc2cc(O)cc(-c3ncc4c(N5CCC[C@]6(CC[S@+]([O-])C6)C5)nc(OC[C@@]56CCCN5C[C@H](F)C6)nc4c3F)c12 (single isomer, unassigned) [Example 625]
9 | 33 nM | 3 nM | 14 nM | 312 nM | > 10000 nM | 5380 nM | 2500 nM |  |  |  |  | CCc1c(F)ccc2cc(O)cc(-c3ncc4c(N5CCCS(=O)(=O)CC5)nc(OC[C@@]56CCCN5C[C@H](F)C6)nc4c3F)c12 [Example 583, 4-(7-(8-ethyl-7-fluoro-3-hydroxynaphthalen-1-yl)-8-fluoro-2-(((2R,7aS)-2-fluorohexahydro-1H-pyrrolizin-7a-yl)methoxy)pyrido[4,3-d]pyrimidin-4-yl)-1,4-thiazepane 1,1-dioxide]
10 | 790 nM | 281 nM | 119 nM | > 10000 nM | > 10000 nM | > 10000 nM | > 10000 nM |  |  |  |  | CCc1c(F)ccc2cc(O)cc(-c3ncc4c(N5CCC6CNC(=O)NC6C5)nc(OC[C@@]56CCCN5C[C@H](F)C6)nc4c3F)c12 (stereo partly drawn) [Example 592, 7-(7-(8-ethyl-7-fluoro-3-hydroxynaphthalen-1-yl)-8-fluoro-2-(((2R,7aS)-2-fluorohexahydro-1H-pyrrolizin-7a-yl)methoxy)pyrido[4,3-d]pyrimidin-4-yl)octahydropyrido[3,4-d]pyrimidin-2(1H)-one]
11 | 91 nM | 53 nM | 80 nM | 2350 nM | > 10000 nM | 2810 nM | 2290 nM |  |  |  |  | CCc1c(F)ccc2cc(O)cc(-c3ncc4c(N5CCCC6(CCCCO6)C5)nc(OC[C@@]56CCCN5C[C@H](F)C6)nc4c3F)c12 (stereo partly drawn) [Example 594, 5-ethyl-6-fluoro-4-(8-fluoro-2-(((2R,7aS)-2-fluorotetrahydro-1H-pyrrolizin-7a(5H)-yl)methoxy)-4-(1-oxa-8-azaspiro[5.5]undecan-8-yl)pyrido[4,3-d]pyrimidin-7-yl)naphthalen-2-ol]
12 | 692 nM | 66 nM | 240 nM |  |  | 5370 nM | 4410 nM | 3530 nM | 1290 nM | 6690 nM | 1410 nM | CCOC(=O)C12CCC(CN(c3nc(OC[C@@]45CCCN4C[C@H](F)C5)nc4c(F)c(-c5cc(O)cc6ccc(F)c(CC)c56)ncc34)C1)C2(F)F (stereo partly drawn) [Example 899, ethyl 3-(7-(8-ethyl-7-fluoro-3-hydroxynaphthalen-1-yl)-8-fluoro-2-(((2R,7aS)-2-fluorotetrahydro-1H-pyrrolizin-7a(5H)-yl)methoxy)pyrido[4,3-d]pyrimidin-4-yl)-8,8-difluoro-3-azabicyclo[3.2.1]octane-1-carboxylate]
13 | 14 nM | 8 nM | 6 nM |  |  | 5800 nM | 2310 nM | 1630 nM | 630 nM | 1730 nM | 707 nM | CCc1c(F)ccc2cc(O)cc(-c3ncc4c(N5CC6CCC(CC(N)=O)(C6)C5)nc(OC[C@@]56CCCN5C[C@H](F)C6)nc4c3F)c12 (stereo partly drawn) [Example 908, 2-(3-(7-(8-ethyl-7-fluoro-3-hydroxynaphthalen-1-yl)-8-fluoro-2-(((2R,7aS)-2-fluorotetrahydro-1H-pyrrolizin-7a(5H)-yl)methoxy)pyrido[4,3-d]pyrimidin-4-yl)-3-azabicyclo[3.2.1]octan-1-yl)acetamide]
14 | 4 nM | 12 nM | 7 nM |  |  | 149 nM | 223 nM | 233 nM | 198 nM | 151 nM | 54 nM | C[C@@]1(O)CCCN(c2nc(OC[C@@]34CCCN3C[C@H](F)C4)nc3c(F)c(-c4cc(O)cc5ccccc45)ncc23)C1 [Example 917, (R)-1-(8-fluoro-2-(((2R,7aS)-2-fluorotetrahydro-1H-pyrrolizin-7a(5H)-yl)methoxy)-7-(3-hydroxynaphthalen-1-yl)pyrido[4,3-d]pyrimidin-4-yl)-3-methylpiperidin-3-ol]
